Assay results as given in US20140121193A1, “METHODS FOR TREATING FIBROMYALGIA” (priority 2012, published 2014).
Structures can show the parent of a compound that is named as a salt.

Legend:
Format in all cases: in vivo, human
patients with FMS [1] = test: Word naming speed (Stroop Color and Word Test) before and after methylphenidate; conditions: 10 to 30 mg per day, median 30 days
Source text: Abnormalities in naming speed are an unappreciated feature of cognitive dysfunction in fibromyalgia (FMS). Approximately 50% of FMS patients with memory problems name words at a rate that is 203 milliseconds slower than normal. The connection between naming speed and memory loss in FMS is unclear. Stimulant medications like methylphenidate have been known to influence naming speed and could provide clues to the relationship between cognitive functioning and naming speed. The purpose of this experiment was to determine if faster naming speed is connected to positive change in cognitive functioning in patients with fibromyalgia.
(§1) A word naming speed measure (Stroop Color and Word Test) and a measure of cognitive functioning (Mental Clutter Scale, MCS) were administered to 15 patients with FMS, before receiving methylphenidate and post-treatment with methylphenidate. The FMS patients were female, met American College of Rheumatology criteria for FMS, and had memory problems. Methylphenidate dosage was clinically determined and ranged from 10 to 30 mg per day. The median time of methylphenidate usage at re-testing was 30 days. Naming speed was determined by the number of words named in a 45 second time period.
(§2) The mean age of the FMS sample was 46.3±11.6 years with 14.1±2.1 years of education. […] Pre-methylphenidate, the patients read 77.4 words in 45 seconds (581.4 msec/word). Post-methylphenidate, the patients read 93 words in 45 seconds (483.9 msec/word). This represents a 97.5 millisecond benefit from methylphenidate. The normative sample reads 108 words in 45 seconds or 417 msec/word.

patients with FMS [2] = test: Mental Clutter Scale (MCS), Cognition and Mental Clarity subscales, before and after methylphenidate; conditions: 10 to 30 mg per day, median 30 days
Experimental: Three studies involving a sample of over 800 subjects were carried out to determine the structure and stability of a new scale, the Mental Clutter Scale (MCS) (Leavitt & Katz, 2011, “Development of the Mental Clutter Scale,” Psychol. Rep. 109(2): 445-52). An initial pool of 13 items was formulated from self-statements of patients presenting with a history of memory complaints and a review of the literature. Seven items relating to problems with cognitive skills were rated on a 10-point Likert scale from 1=no problem, to 10=severe problem. Six items relating to the frequency of diminished mental clarity were rated on a 10-point Likert scale from 1=not at all, to 10=all the time.
as §1, §2

patients with FMS [3] = test: Interference from pain on energy, mood and concentration, 10 point visual analogue scale
Experimental: (§3) Fibromyalgia patients were treated with methylphenidate and the effects on concentration, energy, and feelings of well-being were measured. […] Pain intensity was also recorded on a 10 point visual analogue scale, with the endpoint of 1 indicating no pain, and the endpoint of 10 indicating severe pain. The four measures were administered to 48 patients with FMS, before receiving methylphenidate and post methylphenidate treatment. The FMS patients were female and met the new ACR criteria for FMS. Methylphenidate dosage was clinically determined and ranged from 10 to 60 mg per day. The median methylphenidate usage at re-testing was 30 days.
(§4) The mean age of the FMS sample was 48.3±12.3 years. […] The largest change occurred with concentration. However, a significant change in pain intensity with methylphenidate treatment was not observed.

patients with FMS [4] = test: Pain intensity, 10 point visual analogue scale
Experimental: as §3, §4

COC(=O)C(c1ccccc1)C1CCCCN1 (racemic) [methylphenidate, d,l (racemic)-threo-methyl α-phenyl-2-piperidineacetate hydrochloride]
words read in 45 seconds, post-methylphenidate (patients with FMS [1]; pre-methylphenidate 77.4, normative sample 108): 93 words in 45 seconds | naming time per word, post-methylphenidate (patients with FMS [1]; pre-methylphenidate 581.4, normative sample 417): 483.9 msec/word | benefit from methylphenidate in naming time per word (patients with FMS [1]; pre minus post): 97.5 millisecond | Post-methylphenidate score, Mental Clarity subscale of the Mental Clutter Scale (patients with FMS [2]; 15 FMS patients, pre-methylphenidate 48.1 ± 16.5, lower scores represent improved performance, p < 0.01): 29.2 ± 13.6 | Post-methylphenidate score, Cognition subscale of the Mental Clutter Scale (patients with FMS [2]; 15 FMS patients, pre-methylphenidate 52.8 ± 15.6, lower scores represent improved performance, p < 0.01): 35.1 ± 11.3 | improvement with methylphenidate on Cognition (MCS) (patients with FMS [2]; pre vs post): 17 point | improvement with methylphenidate on Mental Clarity (MCS) (patients with FMS [2]; pre vs post): 19 point | Post-methylphenidate score, pain interference on Mood (patients with FMS [3]; 48 female FMS patients, 10 to 60 mg per day, median 30 days, VAS 1-10, pre-methylphenidate 6.0 ± 2.6, lower scores = improved, p < 0.05): 5.3 ± 2.5 | Post-methylphenidate score, pain interference on Concentration (patients with FMS [3]; 48 female FMS patients, 10 to 60 mg per day, median 30 days, VAS 1-10, pre-methylphenidate 6.5 ± 2.3, lower scores = improved): 5.4 ± 2.4 | Post-methylphenidate score, pain interference on Energy (patients with FMS [3]; 48 female FMS patients, 10 to 60 mg per day, median 30 days, VAS 1-10, pre-methylphenidate 6.6 ± 2.4, lower scores = improved): 5.9 ± 2.2 | change in pain interference on concentration, repeated measures ANOVA (patients with FMS [3]; pre vs post methylphenidate, p<0.001, largest change): significant reduction | change in pain interference on energy, repeated measures ANOVA (patients with FMS [3]; pre vs post methylphenidate, p<0.01): significant reduction | change in pain interference on mood, repeated measures ANOVA (patients with FMS [3]; pre vs post methylphenidate, p<0.05): significant reduction | Post-methylphenidate score, Pain intensity (patients with FMS [4]; 48 female FMS patients, 10 to 60 mg per day, median 30 days, VAS 1-10, pre-methylphenidate 6.7 ± 1.9, lower scores = improved): 6.4 ± 2.4 | significant change in pain intensity with methylphenidate treatment (patients with FMS [4]; pre vs post methylphenidate): not observed
